From patent US20220160658A1, “TESOFENSINE FOR REDUCTION OF BODY WEIGHT IN PRADER-WILLI PATIENTS” (Saniona A/S, priority 2019, published 2022)
“And” between values parts separate entries of the source, which are not always exact repeats. Equal values may be shown once.

How the values were obtained:
[1] = in vivo; cited from earlier work
[2] = Phase 2a trial in adult PWS patients: tesofensine plasma concentration; format: in vivo, human; details: for Mean trough plasma concentration of tesofensine: TM002 study, 0.50 mg tesofensine + 50 mg metoprolol daily
Procedure: This exploratory Phase 2a trial comprised in of a total of nine adult patients with Prader-Willi syndrome (PWS) of which six patients received co-administration of tesofensine (0.50 mg)/metoprolol (50 mg) (A, active treatment—Tesomet) and three patients received placebo (P). The initial plan was to complete 10-20 adult subjects with PWS. However, ultimately nine patients were randomized as more subjects were not available at the two participating sites.
The main objective of this study was to examine the effect of co-administration of tesofensine/metoprolol on body weight in subjects with PWS. Further objectives were: • To establish a pharmacokinetic profile of tesofensine and metoprolol in subjects with PWS. • To examine the effect of co-administration of tesofensine/metoprolol on glycaemic control and lipid profile in subjects with PWS • To examine the effect of co-administration of tesofensine/metoprolol on HR and BP in subjects with PWS • To examine the effects of co-administration of tesofensine/metoprolol on body composition in subjects with PWS • To evaluate overall safety and tolerability of co-administration of the tesofensine/metoprolol in subjects with PWS
Arm 1) tesofensine 0.50 mg+metoprolol 50 mg administered once a day, in the morning with a meal
The study included two arms: Tesomet 0.5/50 (combination of 0.50 mg tesofensine and 50 mg of metoprolol ER) or placebo tablets matching tesofensine+metoprolol succinate, each administered once daily in the morning with a meal.
The primary endpoint was change in body weight following 91 days of treatment with either tesofensine+metoprolol or placebo. Patients were weighed throughout the study period to track changes in body weight. Secondary endpoints included change in hyperphagia-related behavior, pharmacokinetic profile, effects of co-administration of tesofensine/metoprolol on HR, BP, glycemic control, lipid profile and body composition, and safety and tolerability.

[3] = Phase 2a trial in adolescent PWS patients: body weight and BMI, random coefficients analysis; format: in vivo, human
Procedure: Arm 1) tesofensine 0.125 mg+metoprolol 25 mg administered once a day, in the morning with a meal-first, an initial titration dose of tesofensine 0.0625 mg+metoprolol 25 mg will be given for the first 4 weeks, in the morning with a meal. Following a favorable review of all safety data for each subject by the investigator, tesofensine 0.125 mg+metoprolol 25 mg will be given for the final 9 weeks (the above proposed dosing plan can be adjusted by the DSMB, if needed)
(§1) This study included a double blind (DB) part (3 months) and two Open Label Extensions (OLE), each 3 months. Adolescents (12 to 17 years of age) received: tesofensine 0.125 mg daily (0.25 mg every second day)+metoprolol succinate 25 mg. Example 4 relates to Example 2.
(§2) The initial double blind (DB) phase of this study utilized a dose of tesofensine of 0.125 mg daily. In the first 3-month Open Label Extension (OLE1), a dose of 0.125 mg tesofensine was maintained. In the second OLE (OLE2), the tesofensine dose, if judged safe by the principle investigator (PI), was increased to 0.25 mg daily.
In the random coefficients analysis, each subject was considered as having their own profile of data, i.e. their own set of weight change/hyperphagia values and corresponding pk values. The analysis was essentially conducted by fitting a regression line to each subject individually:
where j denotes subjects, j=1 to m, and i denotes the measurement with subject j, i=1 to nj. The slope βj and intercept αj estimate for each subject j=1 to m, along with their standard errors, were then obtained. In a final step, the βj and αj values were averaged across the m subjects to give the overall mean regression slope and mean intercept, βj and αj, which gives the correlation line, as well as the associated confidence interval.

[4] = Phase 2a trial in adolescent PWS patients: hyperphagia score; format: in vivo, human
Procedure: as §1, §2

[5] = Phase 2a trial in adolescent PWS patients: tesofensine plasma levels; format: in vivo, human; details: for concentration at 3 months: human, plasma, oral
Procedure: as §1, §2

[6] = cited from earlier work
[7] = tested on: rat model of diet-induced obesity (DIO); details: DIO rats; cited from earlier work
[8] = cited from earlier work; remark: listed apart in the source
[9] = 0.125 mg tesofensine daily (DB, OLE1)

## COCCc1ccc(OCC(O)CNC(C)C)cc1 (stereo not drawn) [Metoprolol, 1-(Isopropylamino)-3-[4-(2-methoxyethyl)-phenoxy]-propan-2-ol, reference compound]
[1]
  half-life: 3 to 4 h

## CCOC[C@@H]1[C@@H](c2ccc(Cl)c(Cl)c2)C[C@@H]2CC[C@H]1N2C [Tesofensine, (1R,2R,3S,5S)-3-(3,4-dichlorophenyl)-2-(ethoxymethyl)-8-methyl-8-azabicyclo[3.2.1]octane]
[2]; V5 (day 28), n = 6
  Mean trough plasma concentration of tesofensine: 18 ± 9 ng/mL
[2]; V9 (day 56), n = 5
  Mean trough plasma concentration of tesofensine: 21 ± 8 ng/mL
[2]; V14 (day 91), n = 2
  Mean trough plasma concentration of tesofensine: 23 ± 1 ng/mL
[2]; adult PWS, 0.50 mg tesofensine and 50 mg metoprolol
  plasma levels of tesofensine: 20 to 40 ng/mL
[2]; adult PWS, 0.5 mg tesofensine, two patients
  plasma concentration in individual patients: 34.1 ng/mL and 34.2 ng/mL
[2]; adult PWS, dosing of 0.5 mg tesofensine, whole study
  mean trough plasma concentration: ~20 ng/mL
[3]; adolescent PWS, DB phase, 0.125 mg tesofensine dose
  weight change compared to placebo: No difference compared to placebo
[3]; adolescent PWS, at 10 ng/mL tesofensine plasma level, from the correlation analysis
  decrease in weight: around 2%
[3]; adolescent PWS, random coefficients analysis
  tesofensine plasma level that counteracts the baseline weight gain of around 3%: around 6 ng/mL
[3]; random coefficients analysis, N=8, p=0.0031
  Slope (SE), monthly BMI change versus tesofensine plasma level: −0.478 (0.1081)
[3]; random coefficients analysis, N=8, p=0.0046
  Slope (SE), monthly body weight change versus tesofensine plasma level: −0.460 (0.1120)
[4]; DB part and OLE1, 0.125 mg tesofensine daily
  hyperphagia scores compared to placebo: did not differ from placebo
[4]; DB phase, 0.125 mg tesofensine dose
  hyperphagia compared to placebo: No difference compared to placebo
[4]; OLE2, 0.25 mg tesofensine
  hyperphagia scores: dropped to single digit numerical values
[5]; [9]
  plasma levels of tesofensine: 3 to 5 ng/mL
  concentration at 3 months: 3 to 5 ng/mL
[5]; 0.25 mg tesofensine daily (OLE2)
  concentration at 3 months: 7 to 9 ng/mL
[6]; Astrup et al., 2008
  waist circumference and sagittal diameter: significantly decreases
[6]; obese patients, long-term treatment, corrected for placebo and diet effects
  weight loss: about 10%
[7]
  body weight: robust and sustained weight loss
[1]
  serum half-life: nine
[8]; TIPO-1, dose of 0.5 mg Tesofensine
  average tesofensine trough plasma concentration: 10 ng/mL
[8]; previous studies in obese individuals at the same dosages
  efficacious target plasma levels: ~10 ng/mL and around 10 ng/mL
